Each structure is given as a SMILES string. Like-named read-outs stand apart in the source and are kept apart here.

The target in data set [1] is T1, human CCR6 (Homo sapiens, UniProt P51684).
T1 construct: expressed in transfected cells; host or cells: HEK293
T1 sequence (P51684 1-374): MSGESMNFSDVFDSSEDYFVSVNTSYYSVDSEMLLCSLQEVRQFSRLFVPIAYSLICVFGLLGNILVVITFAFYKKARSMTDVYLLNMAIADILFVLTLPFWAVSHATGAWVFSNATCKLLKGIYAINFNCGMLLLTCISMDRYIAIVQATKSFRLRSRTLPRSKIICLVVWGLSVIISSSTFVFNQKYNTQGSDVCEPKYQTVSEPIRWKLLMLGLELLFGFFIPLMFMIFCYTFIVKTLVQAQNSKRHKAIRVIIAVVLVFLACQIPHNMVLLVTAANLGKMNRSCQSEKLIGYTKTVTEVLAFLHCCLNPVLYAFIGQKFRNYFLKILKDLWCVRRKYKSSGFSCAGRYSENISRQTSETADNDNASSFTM
As to the kind of experiment: human CCR6 calcium flux activity (FLIPR, HEK293 cells stably expressing human CCR6, CCL20 stimulation). It counts as cell-based. The conditions noted are these: HEK293 cells stably expressing human CCR6, EC80 human MIP-3 alpha/CCL20; read-out: CCR6 inhibitory activity, IC50. In a few lines:
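Compounds preincubated with Fluo-4 Direct-loaded cells 50 min at 37 °C, then 10 min at room temperature, before CCL20 challenge at EC80. Fluorescence (ex 494/em 516 nm) recorded 90 s; max−min signal gives inhibition, four-parameter fit yields IC50.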
A general note: Calcium flux is commonly read through the fluorescence of an indicator in the cells.

Data set [2] can be described thus: in vitro liver microsome metabolic stability, human. It counts as in vitro ADME. Conditions: Human liver microsomes, 37°C. The method, boiled down:
(§1)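 Test compound at 1 µM final (100 µM working solution diluted 1:100) incubated at 37°C with liver microsomes in pH 7.4 phosphate buffer with NADP/G6P/G6PDH/MgCl2 regenerating system; sampled 0–30 min, LC-MS/MS vs internal standard. T1/2 = 0.693/k from remaining-fraction decay.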
(Liver microsomes are a subcellular fraction often used to study metabolism.)

Data set [3] can be described thus: in vitro liver microsome metabolic stability, rat. Type of data set: in vitro ADME. The conditions noted are these: Rat liver microsomes, 37°C. In a few lines:
as §1

Data set [4] can be described thus: in vitro liver microsome metabolic stability, mouse. Type of data set: in vitro ADME. The conditions noted are these: Mouse liver microsomes, 37°C. As to the method:
Preparation of working solutions for test compounds and standards: An appropriate amount of the compound was accurately weighed and dissolved in a corresponding volume of suitable solvent to prepare 1 mM stock solutions of the test compounds and standards. The stock solutions were then diluted with appropriate solvent to obtain 100 µM working solutions of the test compounds, ensuring that the DMSO content in the working solutions remained below 10%.
The internal standard compound testosterone (or tolbutamide) and its corresponding solvent, internal standard concentration (200 ng/mL), were selected based on the properties of the test compound.
• Solution A: 0.1 mol/L K2HPO4 (2.28 g K2HPO4·3H2O was dissolved in 100 mL of double-distilled water); • Solution B: 0.1 mol/L KH2PO4 (1.36 g KH2PO4 was dissolved in 100 mL of double-distilled water); • 80.2 mL of Solution A and 19.8 mL of Solution B were mixed thoroughly, and the pH was adjusted to 7.4.
37.5 mg of glycine was weighed, dissolved in 100 mL of ultrapure water, and adjusted to pH 8.0 with NaOH.
1.25 mg of glucose-6-phosphate dehydrogenase (400 U/mg) was weighed (the specific amount weighed was calculated based on the activity of the purchased glucose-6-phosphate dehydrogenase), dissolved in 1 mL of glycine buffer to a concentration of 500 U/mL, aliquoted into 20 µL per tube, and stored at -20°C for future use.
7.83 mg of NADP, 0.06 mL of D-glucose-6-phosphate (260 mg/mL), and 10.17 mg of MgCl2·6H2O were precisely weighed.
The mixture was dissolved in 1 mL of pure water. The cofactor ratio composition: NADP 10 mM, D-glucose-6-phosphate 60 mM, MgCl2·6H2O 50 mM.
The reaction system (taking a 500 µL system as an example) was composed of the following solution ratios: 416.5 µL phosphate buffer, 5 µL compound working solution, 25 µL liver microsomes, 3.5 µL glucose-6-phosphate dehydrogenase, and 50 µL cofactor solution. The total incubation volume could be adjusted according to experimental requirements.
416.5 µL of phosphate buffer was taken, 25 µL of liver microsomes, 3.5 µL of glucose-6-phosphate dehydrogenase, and 50 µL of cofactor solution were added, vortexed twice to mix, and preincubated in a 37°C water bath for 5 minutes. Then, 5 µL of the test compound working solution was added, vortexed twice to mix, each time for 2-3 seconds, and placed in a 37°C water bath to initiate the reaction, with two parallel samples set. At 0.5 min, 1 min, 2 min, 5 min, 15 min, and 30 min after the reaction, 50 µL of the mixture was taken and added to centrifuge tubes containing 200 µL of 0°C pre-cooled internal standard working solution to terminate the reaction, vortexed for 1 minute to mix, and centrifuged at 13,000 rpm for 10 minutes in a 4°C pre-cooled high-speed centrifuge. The supernatant was collected for analysis. After the compound was added and vortex-mixed, 50 µL of the mixture was rapidly transferred to a centrifuge tube containing 200 µL of a pre-cooled (0°C) internal standard working solution to terminate the reaction, vortex-mixed for 1 minute, and used as the relative zero-point sample (relative to the standard group). The sample was then placed into a 37°C water bath to initiate the reaction, and timing was started.
The sample analysis of the test compound was performed using the liquid chromatography-tandem mass spectrometry (LCMS/MS) method. The semi-quantitative determination was performed using the ratio of the analyte peak area to the internal standard peak area. The retention times of the analyte and internal standard, chromatogram acquisition, and chromatogram integration were processed using Analyst software.
The in vitro elimination rate constant k of the test compound and the control compound was determined by converting the ratio of the peak area of the test compound to the internal standard into the remaining rate, and T1/2 was then calculated according to the following formula. T1/2 = (Ln2)/(k) = (0.693)/(k) [formula] Table 3. […]

A short description of data set [5]: in vitro liver microsome metabolic stability, beagle dog. It counts as in vitro ADME. Conditions: Beagle dog liver microsomes, 37°C. The method, boiled down: as §1
Data set [6] is described as follows: in vivo pharmacokinetic study in SD rats. The conditions noted are these: rat; for bioavailability: 1 mg/kg PO vs 1 mg/kg IV, read-out: Oral bioavailability F (%); for AUC(0-t) / Cmax / half-life: 1 mg/kg. The method, boiled down: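 Male SD rats (180-200 g), 3 per route: single fasted oral gavage in 1% Tween 80 or tail-vein IV bolus in 50% PEG400. Orbital blood into EDTA-K2 sampled to 8 h; plasma analysed and PK parameters derived by non-compartmental analysis.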

As for `CN(C)C(=O)c1nccc(Nc2c(NC(c3nc(Cl)ccc3F)C3(C)CC4CC4C3)c(=O)c2=O)c1O` (stereo not shown) [compound 085, 4-((2-(((6-chloro-3-fluoropyridin-2-yl)(3-methylbicyclo[3.1.0]hexan-3-yl)methyl)amino)-3,4-dioxocyclobut-1-en-1-yl)amino)-3-hydroxy-N,N-dimethylpicolinamide], the IC50 in data set [1] stood at 38 nM. Moreover, the “Liver microsome T1-2 (min) Human” value in data set [2] is listed as 226.52 min. Moreover, the “Liver microsome T1-2 (min) Rat” value in data set [3] was 56.96 min. Besides, the “Liver microsome T1-2 (min) Mouse” value in data set [4] worked out at 54.79 min. Besides, the “Liver microsome T1-2 (min) Beagle dog” value in data set [5] is reported as 204.66 min.

In the case of `CN(C)C(=O)c1nccc(Nc2c(NC(c3ncccn3)C3(C)CCCC3)c(=O)c2=O)c1O` (racemic) [compound 017], the IC50 in data set [1] came to 10 nM. Besides, the “Liver microsome T1-2 (min) Human” value in data set [2] is recorded as 1176.24 min. In addition, the “Liver microsome T1-2 (min) Rat” value in data set [3] was found to be 324.15 min. Also, the “Liver microsome T1-2 (min) Mouse” value in data set [4] is 1273.80 min. Moreover, the “Liver microsome T1-2 (min) Beagle dog” value in data set [5] stood at 848.60 min.

Take `Cc1cc(F)cnc1[C@H](Nc1c(Nc2ccnc(C(=O)N(C)C)c2O)c(=O)c1=O)C1(C)CCCC1` [compound 065, (R)-4-((2-(((5-fluoro-3-methylpyridin-2-yl)(1-methylcyclopentyl)methyl)amino)-3,4-dioxocyclobut-1-en-1-yl)amino)-3-hydroxy-N,N-dimethylpicolinamide]: the IC50 in data set [1] amounted to 3.9 nM. In data set [2], the “Liver microsome T1-2 (min) Human” value amounted to 197.68 min. In data set [3], the “Liver microsome T1-2 (min) Rat” value is listed as 39.70 min. For the same compound, in data set [4], the “Liver microsome T1-2 (min) Mouse” value is given as not below 120 min. Also, the “Liver microsome T1-2 (min) Beagle dog” value in data set [5] was 200.21 min.

`CN(C)C(=O)c1nccc(Nc2c(N[C@@H](c3cc(F)cc(F)n3)C3(C)CCCC3)c(=O)c2=O)c1O` [compound 022, (R)-4-((2-(((4,6-difluoropyridin-2-yl)(1-methylcyclopentyl)methyl)amino)-3,4-dioxocyclobut-1-en-1-yl)amino)-3-hydroxy-N,N-dimethylpicolinamide]: in data set [1], the IC50 stood at 7.4 nM. For the same compound, the “Liver microsome T1-2 (min) Human” value in data set [2] was found to be 271.15 min. Also, the “Liver microsome T1-2 (min) Rat” value in data set [3] came to 116.86 min. Also, in data set [4], the “Liver microsome T1-2 (min) Mouse” value came out at 1925.01 min. The “Liver microsome T1-2 (min) Beagle dog” value in data set [5] is recorded as 271.86 min.

For the compound `CN(C)C(=O)c1nccc(Nc2c(N[C@@H](c3ccccn3)C3(C)CCCC3)c(=O)c2=O)c1O` [compound 004, (R)-3-hydroxy-N,N-dimethyl-4-((2-(((1-methylcyclopentyl)(pyridin-2-yl)methyl)amino)-3,4-dioxocyclobut-1-en-1-yl)amino)picolinamide], the IC50 in data set [1] was 12.3 nM. Besides, the “Liver microsome T1-2 (min) Human” value in data set [2] was 672.88 min. In data set [3], the “Liver microsome T1-2 (min) Rat” value came out at 90.26 min. Also, in data set [4], the “Liver microsome T1-2 (min) Mouse” value was found to be 6368.42 min. The “Liver microsome T1-2 (min) Beagle dog” value in data set [5] came to 320.98 min.

For the compound `CN(C)C(=O)c1nccc(Nc2c(N[C@@H](c3cccc(F)n3)C3(C)CCCC3)c(=O)c2=O)c1O` [compound 002, (R)-4-((2-(((6-fluoropyridin-2-yl)(1-methylcyclopentyl)methyl)amino)-3,4-dioxocyclobut-1-en-1-yl)amino)-3-hydroxy-N,N-dimethylpicolinamide], the IC50 in data set [1] was found to be 7 nM. For the same compound, the “Liver microsome T1-2 (min) Human” value in data set [2] came out at 281.53 min. For the same compound, the “Liver microsome T1-2 (min) Rat” value in data set [3] is recorded as 85.28 min. Further, the “Liver microsome T1-2 (min) Mouse” value in data set [4] turned out to be 1127.82 min. The “Liver microsome T1-2 (min) Beagle dog” value in data set [5] was 202.32 min.

Take `Cc1cccnc1[C@@H](Nc1c(Nc2ccnc(C(=O)N(C)C)c2O)c(=O)c1=O)[C@]1(C)CCC(F)(F)C1` (single isomer, unassigned) [125D]: the “Liver microsome T1-2 (min) Human” value in data set [2] is 572.07 min. Also, the “Liver microsome T1-2 (min) Rat” value in data set [3] is 83.07 min. For the same compound, the “Liver microsome T1-2 (min) Mouse” value in data set [4] was found to be 19686.4 min. The “Liver microsome T1-2 (min) Beagle dog” value in data set [5] is 220.11 min.

For the compound `CN(C)C(=O)c1nccc(Nc2c(NC(C#CC3CCC3)C3(C)CC(F)(F)CO3)c(=O)c2=O)c1O` (stereo not shown) [compound 110], the bioavailability in data set [6] (in vivo) came to 60.2%. In data set [6] (in vivo, IV), this compound showed an AUC(0-t) of 739 ng·h/mL, a Cmax of 3780 ng/mL and a half-life of 17.4 min. Also, in data set [6] (in vivo, PO), the AUC(0-t) is 444 ng·h/mL, the Cmax was 268 ng/mL and the half-life was 57.6 min. For the same compound, in data set [2], the “Liver microsome T1-2 (min) Human” value is given as 324.84 min. Besides, the “Liver microsome T1-2 (min) Rat” value in data set [3] is on record as 97.61 min. For the same compound, the “Liver microsome T1-2 (min) Mouse” value in data set [4] is reported as 1846.01 min. In data set [5], the “Liver microsome T1-2 (min) Beagle dog” value came out at 369.92 min.

Take `CN(C)C(=O)c1nccc(Nc2c(NC(c3nc(F)ccc3F)C3(C)CC4CC4C3)c(=O)c2=O)c1O` (stereo not shown) [compound 126, 4-((2-(((3,6-difluoropyridin-2-yl)(3-methylbicyclo[3.1.0]hexan-3-yl)methyl)amino)-3,4-dioxocyclobut-1-en-1-yl)amino)-3-hydroxy-N,N-dimethylpicolinamide]: the bioavailability in data set [6] (male, plasma) came to 26.9%. In data set [6] (male, plasma, IV), this compound came in with an AUC(0-t) of 1550 ng·h/mL and a Cmax of 3900 ng/mL. Moreover, in data set [6] (male, plasma, PO), the AUC(0-t) worked out at 417 ng·h/mL and the peak level (Cmax) was 266 ng/mL. For the same compound, in data set [2], the “Liver microsome T1-2 (min) Human” value is given as 531.62 min. The “Liver microsome T1-2 (min) Rat” value in data set [3] turned out to be 58.22 min. Moreover, the “Liver microsome T1-2 (min) Mouse” value in data set [4] was not below 120 min. The “Liver microsome T1-2 (min) Beagle dog” value in data set [5] was 331.52 min.

As for `Cc1cccnc1[C@@H](Nc1c(Nc2ccnc(C(=O)N(C)C)c2O)c(=O)c1=O)[C@@]1(C)CCC(F)(F)C1` [125C], the “Liver microsome T1-2 (min) Human” value in data set [2] came to 343.09 min. The “Liver microsome T1-2 (min) Rat” value in data set [3] was 32.18 min. Also, the “Liver microsome T1-2 (min) Mouse” value in data set [4] is 550.74 min. The “Liver microsome T1-2 (min) Beagle dog” value in data set [5] is 222.01 min.

For orientation: IC50 means the midpoint of a concentration-inhibition curve. Usually bioavailability stands for dose-corrected exposure relative to a reference, in per cent. What is called AUC(0-t) is exposure summed from dosing to a finite time, without extrapolation to infinity. Lower therefore signals low exposure. A word on the Cmax: it is the highest concentration seen after dosing. A word on the half-life: it is the time in which the quantity being followed falls by half. A low value points to rapid decline.
